Among the data in a melting point compilation (Tetko et al.; mined from patent text by program, amines drawn as free bases though some values may be those of a salt) are melting point values, retold here.

As a reminder, the melting point is the temperature of the solid-liquid transition.

Molecules are shown by their SMILES.

`O=C(Cl)C(OCc1ccc(-c2ccc(Cl)cc2)cc1)(C(F)(F)F)C(F)(F)F`: the melting point was in the range of 30 to 35 °C.

The molecule `O=C1c2ccccc2C(=O)N1Cc1nnc2n1-c1ccc(Cl)cc1C(c1ccccc1F)=CC2` displayed a melting point of 235 to 237 °C.

`CCCCCCCCCCCCCCCc1cc2cccc(C(=O)O)c2[nH]1` showed a melting point of 93 to 99 °C.

`CC(C)n1cc(-c2nc(C#N)c(N)nc2-c2ccc(F)cc2)ccc1=O` came in with a melting point of 207 °C.

Consider `N#Cc1ccc2c(c1)S(=O)(=O)c1ccc(N)cc1C=C2`, for which the melting point fell in the range of 321 to 324 °C.

Molecule `N#CC1(C2(O)CCCCC2)Cc2cc3c(cc21)NCC3` (stereo not drawn) gave a melting point of 168 to 170 °C.

Molecule `Nc1nc(NCc2cccc(I)c2)c2ncn(C3OC(CO)C(O)C3O)c2n1` (stereo not drawn) gave a melting point of 152 to 154 °C.

`COC(=O)/C=C/c1ccc2c(c1)C(C)(C)CC(=O)N2` came in with a melting point of 174 to 175 °C.

The molecule `COc1cc(/C=C/c2ccc(N(C)C)cc2)cc(OC)c1OC` gave a melting point of 114 to 115 °C.

Molecule `CC(=O)Nc1cc(F)ccc1C(=O)NCCN1CCC(n2c(=O)[nH]c3ccccc32)CC1` came in with a melting point of 210 °C.

For the molecule `Cc1ccc(C(=O)Nc2c(NC(=O)CN(C)CC3OCCO3)ccc3c2C(=O)c2ccccc2C3=O)cc1`, the melting point fell in the range of 156 to 157 °C.

`CCCc1ccc(OC(C)=O)c(C2(OC(C)=O)C(=O)c3ccccc3C2=O)c1` returned a melting point of 108 to 111 °C.

`COc1ccc(-c2nc(CCCCCCc3nnn[nH]3)oc2-c2ccc(OC)cc2)cc1` showed a melting point of 124 °C.

The molecule `Cc1c(Br)ccc(OC(=O)C(C)(C)C)c1C(=O)O` displayed a melting point of 144 to 145 °C.

Molecule `CNC(=NS(C)(=O)=O)NCCCCCc1nc(N)nc(N)n1` gave a melting point of 194 to 195 °C.

The molecule `Nc1ccc(S(=O)(=O)Nc2cc(Cl)nc(C(F)(F)F)c2)cc1` displayed a melting point of 179 to 181 °C.

Turning to `CSC(=S)NN=Cc1nc(Cc2ccccc2)[nH]c1C`, the melting point fell in the range of 207 to 210 °C.

Turning to `O=C(Nc1ccc(-c2ncc(-c3cccc(NC(=O)c4ccccn4)c3)[nH]2)cc1)c1ccccn1`, the melting point fell in the range of 255 to 257 °C.

Molecule `CSC(=S)N1C(CO)Cc2c([nH]c3ccccc23)C1C` (stereo not drawn) came in with a melting point of 153 to 156 °C.

On to `CCOC(=O)c1c(S(=O)(=O)c2ccccc2)cc(C(F)(F)F)nc1C(F)(F)F`, for which the melting point was 48 to 50 °C.

Molecule `CCN(CC)CCOCCC1CCN(C(=O)N2c3cc(Cl)ccc3C(=O)Nc3cccnc32)CC1` gave a melting point of 145 to 146 °C.

In turn, `O=C(O)CCCCCCCOc1nc(-c2ccccc2)c(-c2ccccc2)n1-c1ccccc1` gave a melting point of 158 to 159 °C.

For the molecule `COc1ccc(Br)c2c1C1C(=O)N(C)C(=O)C1CC2` (stereo not drawn), the melting point was 201 to 202 °C.

Molecule `CC1(N)CN(c2c(F)cc3c(=O)c(C(=O)O)cn(-c4ccc(F)cc4F)c3c2F)C1` showed a melting point of 185 to 186 °C.

The molecule `CCOC(=O)CNc1ncccc1NC(=O)c1ccccn1` came in with a melting point of 98 to 100 °C.

The molecule `COc1ccc(CNC(=O)c2ccc3ccccc3c2Br)cc1` displayed a melting point of 155 °C.

With `O=[N+]([O-])c1cc2c(Nc3cc(Cl)c(Cl)cc3F)ncnc2cc1OCCOCCO`, the melting point was found to be 149 °C.

As to `Cn1c(C(F)(F)F)cc(=O)n(-c2c(O)cc(Cl)cc2F)c1=O`, the melting point was 143 to 144 °C.

Molecule `O=C(O)c1c(Cl)nc(-c2ccccc2)c2ccccc12` registered a melting point of 208 °C.

On to `CC(=O)OC(C)(C)C(=O)Nc1c(C(=O)c2cc(C)ccn2)[nH]c2cc(Cl)ccc12`, for which the melting point lay within 222 to 223 °C.

`O=C(NCC1CCN(CC2(C(=O)O)CCC2)CC1)N1C(=O)C2(CCCC2)c2ccc(F)cc21`: the melting point turned out to be 150 °C.

In turn, `O=C(NC1CCCCC1)Oc1ccc(N=C=S)cc1` showed a melting point of 170 to 173 °C.

Molecule `COC(=O)CN1C(=S)CN=C(c2ccccc2)c2cc(Cl)ccc21` gave a melting point of 180 to 182 °C.

`Sc1c(Br)cc(Br)c(Br)c1S` returned a melting point of 125 to 127 °C.

`CC(C)C(O)=C(C#N)C#N` returned a melting point of 92 to 93 °C.

Regarding `Clc1ccc(CC2(n3cncn3)CC2)cc1`, the melting point was 67 to 68 °C.

In turn, `O=C(COc1cccc(C(F)(F)F)c1)N[C@@H](Cc1ccccc1)C(=O)CSCc1ccco1` came in with a melting point of 72 to 80 °C.

`O=C1CCC(N2Cc3c(OCc4ccc(CN5CCC(c6ccncc6)CC5)cc4)cccc3C2=O)C(=O)N1` (stereo not drawn) yielded a melting point of 198 to 200 °C.

Regarding `COC(=O)c1cc2cccc(OCc3cccnc3)c2o1`, the melting point was in the range of 117 to 118 °C.

Molecule `Cc1nc(-c2ccc3c(c2)c2cc(-c4ccc(Cl)cc4Cl)c(=O)n(C)c2n3C)co1` registered a melting point of 222 to 223 °C.

As for `NNC(=O)Nc1ccc(O)cc1`, the melting point was in the range of 184 to 186 °C.

In turn, `O=c1cc(-c2cccc(F)c2)oc(N2CCOCC2)c1` yielded a melting point of 169 to 170 °C.

For `CC1(C)Oc2ccc(C#N)cc2[C@@H](NC(=O)C2=C(c3ccccc3)CCC2)[C@@H]1O`, the melting point is 156 to 158 °C.

Consider `CC(O)CNc1ccc(NC(=O)n2ccc3cc(Oc4cc(CC(N)=O)ncn4)ccc32)cc1C(F)(F)F` (stereo not drawn), for which the melting point was in the range of 226 to 230 °C.

Regarding `O=C1CC=C(c2ccccc2Cl)c2cc(Cl)ccc2N1`, the melting point came to 171 °C.

Take `Oc1ccc2cc(-c3noc4ccc(O)cc34)ccc2c1`: the melting point was 250 to 252 °C.

With `CC(=O)NC1=C(O)CC(C(=O)N(C)C)CC1=O` (stereo not drawn), the melting point fell in the range of 162 to 164 °C.

`COc1cc(-c2nc(-n3ccnc3)c3c(C)c(C#N)sc3n2)cc(OC)c1OC` displayed a melting point of 238 to 240 °C.

On to `CCCCCCCCCCCCNC(=O)c1cc(Br)c(OCCn2ccnn2)c(-c2cccc(C(F)(F)F)c2)c1`, for which the melting point was in the range of 70.5 to 72.5 °C.

`CC1=C(OCC(C)C)CCC(C)(C)C1(O)C[Si](C)(C)C` (stereo not drawn) yielded a melting point of 50 °C.

`CC(Oc1ccc(-c2ccc(S(N)(=O)=O)c(F)c2)cc1)C(O)CCc1cccnc1` (stereo not drawn) had a melting point of 178 to 180 °C.

Molecule `O=c1[nH]cnc2c1ncn2CCO` came in with a melting point of 274 °C.

For the molecule `COC(C)=CC(=O)Nc1cccc(N(C)C(N)=O)c1`, the melting point turned out to be 166 °C.

`O=C1Cc2c(ccc3c(CCC4CCN(Cc5ccccc5)CC4)noc23)N1` displayed a melting point of 188 to 189 °C.

For the molecule `OCC1OC(Sc2ccccc2)C(OCc2ccccc2)C(OCc2ccccc2)C1OCc1ccccc1` (stereo not drawn), the melting point was in the range of 127 to 129 °C.

Consider `COC(=O)c1cccc(S(=O)(=O)N(C)C)c1CS(=O)(=O)NC(=O)Nc1nc(OC)cc(OC)n1`, for which the melting point fell in the range of 175 to 180 °C.

The molecule `Cc1cc(O)ccc1-n1cc(C(=O)O)c(=O)cc1C=O` registered a melting point of 230 to 250 °C.

`N#CC(CF)(CF)CF` gave a melting point of 70 to 75 °C.

With `CS(=O)(=O)N1Cc2cccc(-c3ccc4cnc(Nc5ccc(C6CN(CC(N)=O)C6)cc5)nn34)c2C1`, the melting point fell in the range of 216 to 218 °C.

Turning to `C=CCc1c(OCCCOc2ccc3c(c2)OC(C(=O)O)CC3)ccc(C(C)=O)c1OC` (stereo not drawn), the melting point came to 85.5 °C.

The molecule `CC(=O)c1ccccc1CN1C(=O)C(NC(=O)Nc2cccc(-c3nnn[nH]3)c2)N=C(C2CCCCC2)c2cccc(C)c21` (stereo not drawn) yielded a melting point of 199 to 208 °C.

With `COc1ccc2c(c1)C(CC#N)CN(C(=O)OC(C)(C)C)C2` (stereo not drawn), the melting point lay within 75 to 77 °C.

With `O=C(Nc1ccccc1)Oc1ccccc1`, the melting point lay within 123 to 124 °C.
